Test results reported in the CheMixHub ionic liquid set.

Experiment: xn = mol fraction of the nth substance listed

O=S(=O)([N-]S(=O)(=O)C(F)(F)F)C(F)(F)F.[Li+] + C1COCO1
298.15 K, 100 kPa
Conditions	electrical conductivity [S/m]	viscosity [mPa·s]
x1 = 8e-07	1.3e-05	–
x1 = 3.74e-06	3.1e-05	–
x1 = 8.82e-06	5e-05	0.58
x1 = 1.615e-05	6.8e-05	0.582
x1 = 2.378e-05	8.1e-05	0.583
x1 = 3.941e-05	0.000103	0.584
x1 = 8.444e-05	0.000138	0.585
x1 = 0.0001607	0.0002	0.588
x1 = 0.0004162	0.000398	0.589
x1 = 0.0007624	0.000536	0.591
x1 = 0.001538	0.000978	0.595
x1 = 0.002969	0.00173	0.608
x1 = 0.004513	0.00309	0.629
x1 = 0.005877	0.00459	0.633
x1 = 0.007354	0.00664	0.637
x1 = 0.01099	0.0164	0.661
x1 = 0.0146	0.0294	0.683
x1 = 0.02174	0.0659	0.758
x1 = 0.03572	0.169	0.905
x1 = 0.06897	0.446	1.388
x1 = 0.08475	0.563	1.684
x1 = 0.1	0.643	2.11
x1 = 0.1285	0.738	3.122
x1 = 0.1563	0.744	4.4
x1 = 0.1818	0.69	6.52
x1 = 0.2054	0.606	9.99
x1 = 0.2273	0.512	13.96
x1 = 0.2467	0.431	20.04
x1 = 0.2703	0.337	30.3

CCCCn1cc[n+](C)c1C.O=S(=O)([N-]S(=O)(=O)C(F)(F)F)C(F)(F)F + CC1COC(=O)O1
101.3 kPa
Conditions	viscosity [mPa·s]
288.15 K, x1 = 0.6989	76.5
293.15 K, x1 = 0.0902	4.602
293.15 K, x1 = 0.6034	43.21
298.15 K, x1 = 0.4039	16.99
303.15 K, x1 = 0.193	5.92
303.15 K, x1 = 0.4996	20.52
303.15 K, x1 = 0.8107	50
303.15 K, x1 = 1	78.6
308.15 K, x1 = 0.193	5.23
308.15 K, x1 = 0.8107	40.47
313.15 K, x1 = 0.0902	2.96
313.15 K, x1 = 0.4039	10.52
313.15 K, x1 = 1	50.1
318.15 K, x1 = 0.193	4.177
318.15 K, x1 = 0.2934	6.16
318.15 K, x1 = 0.4996	13.02
318.15 K, x1 = 0.8107	27.72
318.15 K, x1 = 1	41.04
328.15 K, x1 = 0.0902	2.263
333.15 K, x1 = 0.8107	17.54
333.15 K, x1 = 1	24.25
338.15 K, x1 = 0.2934	4.026
338.15 K, x1 = 0.4996	7.4
343.15 K, x1 = 0.4996	6.47
343.15 K, x1 = 0.6034	8.56

CCCC[N+](C)(C)C[c-]1cccc1.O=S(=O)([N-]S(=O)(=O)C(F)(F)F)C(F)(F)F.[Fe+2].c1cc[cH-]c1 + CC#N
100 kPa
Conditions	electrical conductivity [S/m]
298 K, x1 = 0.03	2.17
303 K, x1 = 0.1	1.88
308 K, x1 = 0.08	2.2
308 K, x1 = 0.2	0.945
313 K, x1 = 0.07	2.47
318 K, x1 = 0.01	1.58
318 K, x1 = 0.06	2.67
318 K, x1 = 0.08	2.47
318 K, x1 = 0.15	1.58
318 K, x1 = 0.2	1.14
323 K, x1 = 0.01	1.64
323 K, x1 = 0.2	1.24
328 K, x1 = 0.05	2.95
328 K, x1 = 0.12	2.19
333 K, x1 = 0.01	1.75
333 K, x1 = 0.02	2.5
333 K, x1 = 0.03	2.92
333 K, x1 = 0.07	3
338 K, x1 = 0.05	3.2
338 K, x1 = 0.07	3.15
343 K, x1 = 0.07	3.28
343 K, x1 = 0.08	3.15
343 K, x1 = 0.15	2.19
348 K, x1 = 0.02	2.76
348 K, x1 = 0.07	3.42
348 K, x1 = 0.08	3.3
348 K, x1 = 0.12	2.74

CCCC[N+]1(C)CCCC1.O=S(=O)([O-])C(F)(F)F + CC#N
viscosity [mPa·s], 101 kPa
Conditions	288.15 K	293.15 K	298.15 K
x1 = 0.0008322	0.377	0.358	0.34
x1 = 0.001153	0.379	0.359	0.342
x1 = 0.001607	0.381	0.361	0.345
x1 = 0.002041	0.383	0.364	0.347
x1 = 0.002439	0.386	0.366	0.349
x1 = 0.002832	0.388	0.368	0.351
x1 = 0.003272	0.39	0.369	0.353
x1 = 0.003684	0.392	0.372	0.355
x1 = 0.004131	0.394	0.374	0.357
x1 = 0.00964	0.423	0.404	0.386
x1 = 0.01639	0.458	0.437	0.417
x2 = 0.9756	0.498	0.473	0.45

O=S(=O)([N-]S(=O)(=O)C(F)(F)F)C(F)(F)F.[Li+] + CC#N
100 kPa
Conditions	electrical conductivity [S/m]	viscosity [mPa·s]
293 K, x1 = 0.25	–	17.9
303.15 K, x1 = 0.02067	2.79	–
303.15 K, x1 = 0.03069	3.23	–
308.15 K, x1 = 0.03069	3.34	–
308.15 K, x1 = 0.04052	3.85	–
308.15 K, x1 = 0.05013	4.25	–
308.15 K, x1 = 0.07787	4.14	–
313.15 K, x1 = 0.02067	3.03	–
313.15 K, x1 = 0.07787	4.35	–
318.15 K, x1 = 0.04052	4.16	–
318.15 K, x1 = 0.05013	4.64	–
323.15 K, x1 = 0.05957	4.97	–
328.15 K, x1 = 0.05013	4.99	–
328.15 K, x1 = 0.05957	5.14	–
333.15 K, x1 = 0.05957	5.28	–
